Source: PMC9146163, “Novel Au Carbene Complexes as Promising Multi-Target Agents in Breast Cancer Treatment” (Pharmaceuticals, 2022)
Where two headings read alike, the source gives them in different places.

Assays:
Hek-293 cells [1] = experiment: MTT assay, normal Hek-293; type: cell-based, human; settings: read-out: IC50 Hek-293
Procedure: (§1) The five employed cell lines were purchased from American Type Culture Collection (ATCC, Manassas, VA, USA) and maintained as already reported. […] SkBr3 cells were maintained in DMEM high glucose, supplemented with 10% FBS and 100 μg/mL penicillin/streptomycin.
(§2) MTT assays [Sigma Aldrich (St.Louis, MO, USA)] were used in order to determine the in vitro anticancer activities of all the target compounds, as already reported.The compounds were tested at different concentrations (0.1-1-10-20-40 µM) for 72 h. Results are represented as percent (%) of basal and the IC50 values were calculated using GraphPad Prism 9 (GraphPad Software, La Jolla, CA, USA).

MCF-7 cells = experiment: MTT assay, MCF-7; type: cell-based, human; settings: read-out: IC50 MCF-7
Procedure: (§3) The five employed cell lines were purchased from American Type Culture Collection (ATCC, Manassas, VA, USA) and maintained as already reported. MCF-7, MDA-MB-231, MCF-10A and Hek-293 were cultured, as indicated by Iacopetta et al.. SkBr3 cells were maintained in DMEM high glucose, supplemented with 10% FBS and 100 μg/mL penicillin/streptomycin.
as §2

MDA-MB-231 cells = experiment: MTT assay, MDA-MB-231; type: cell-based, human; settings: read-out: IC50 MDA-MB-231
Procedure: as §3, §2

MCF-10A cells = experiment: MTT assay, normal MCF-10A; type: cell-based, human; settings: 72 h, read-out: IC50 MCF-10A
Procedure: as §1
[…] Results are represented as percent (%) of basal and the IC50 values were calculated using GraphPad Prism 9 (GraphPad Software, La Jolla, CA, USA).

SkBr3 cells = experiment: MTT assay, SkBr3; type: cell-based, human; settings: read-out: IC50 SkBr3
Procedure: as §3, §2

[2] = LogP determination (1-octanol/water, UV/vis); type: physicochemical; settings: log[complex]oct/[complex]H2O, 55 μM, UV-Vis
Procedure: The logarithm of the partition coefficient (LogP) was evaluated by making a slight modification to the procedure reported in ref. [79]. Equal volumes of 1-octanol and water (distilled after milli-Q purification) were stirred for 20 h at room temperature. Then, they were separated to give 1-octanol-saturated water and water-saturated 1-octanol. Six (10, 20, 40, 50, 60 and 100 μM) standard concentrations of the compounds were prepared from the water-saturated 1-octanol. Analysis using UV/vis spectroscopy was used to obtain a calibration curve of absorbance vs. concentration. For each complex, a solution was prepared in the water-saturated 1-octanol (55 μM) and an equal volume of 1-octanol-saturated water was added. The solutions (biphasic) were mixed for 15 min and then centrifuged for 1h at 6500 rpm to allow separation.
Concentration in water-saturated 1-octanol was determined by UV-Vis spectroscopy. Reported LogP is defined as log[complex]oct/[complex]H2O.

[3] = biological target: T1, Labeled Rabbit Muscle Actin (Oryctolagus cuniculus, UniProt P68135); experiment: In vitro actin polymerization assay; type: biochemical; settings: 5 µM; for actin polymerization curve, final value: end of 1 h kinetic read, control about 37.000 RFU
T1 construct: purchased Abcam (Actin Polymerization/Depolymerization Assay Kit)
Procedure: (§4) The ability of the tested compounds to interfere with the actin polymerization and depolymerization reaction was measured using an Actin Polymerization/Depolymerization Assay Kit purchased from Abcam, following the manufacturer’s instructions. […] For the polymerization assay, reconstituted actin was mixed with supplemented Buffer G and samples in a white 96-well plate and then the polymerization reaction was induced with the addition of the Buffer P supplemented with 10 mM ATP. The solution was mixed and the data acquisition started. For the Actin Depolymerization Assay, supplemented Buffers P and G were mixed and incubated in a white 96-well plate at room temperature for one hour to polymerize the actin, protected from light. Then samples were added and the data acquisition started. Latrunculin A and Cytochalasin B were used as control molecules at a concentration of 5 μM. For both the assays, the assembly of actin filaments was determined by measuring the fluorescence (Ex/Em: 365/410 nm) in kinetic mode for 1 h at room temperature using a microplate reader.

[4] = biological target: T1, Labeled Rabbit Muscle Actin; experiment: In vitro actin depolymerization assay; type: biochemical; settings: for effect on already polymerized actin (in words): 5 µM
Procedure: as §4

vimentin in MCF-7 cells = experiment: Vimentin expression (immunofluorescence), MCF-7; type: cell-based, human; settings: fluorescence quantification; IC50 value, 24 h
Procedure: (§5) The MitoTracker Deep Red FM probe (MitoTracker Mitochondrion-Selective Probes, Invitrogen European Headquarters, Paisley, PA4 9RF, UK) was used for mitochondrial staining, as previously described. For immunofluorescence analysis, the cells were seeded and further processed, as reported by Iacopetta et al.. The primary antibodies used were: rabbit anti-β-Actin and vimentin (Santa Cruz Biotechnology, Dallas, TX, USA), mouse anti cytochrome c and NF-κB p65 (Abcam, Cambridge, UK), diluted 1:100 in bovine serum albumin (BSA) 2% overnight at 4 °C. The secondary antibodies were: Alexa Fluor® 488 conjugate goat-anti-rabbit and Alexa Fluor® 568 conjugate goat-anti-mouse (Thermo Fisher Scientific, MA, USA), diluted 1:500 and incubated for 2h at 37 °C. DAPI 0.2 μg/mL (Sigma Aldrich, Milan, Italy) was used for nuclei staining. […] All the images were acquired and processed using the LAS-X software.
Protein lysates underwent the SDS-PAGE process, as already defined. Then lysates were resolved on a 7.5% SDS polyacrylamide gel, transferred to a nitrocellulose membrane, and probed with antibodies against vimentin and GAPDH (Santa Cruz Biotechnology, Dallas, TX, USA). […] The images are representative of three independent experiments.

β-actin in MCF-7 cells = experiment: Actin immunofluorescence, MCF-7; type: cell-based, human; settings: 24 h; compound 6 at its IC50 value, LA 0.1 µM
Procedure: as §5

[5] = system: β-actin in MDA-MB-231 cells; experiment: Actin immunofluorescence, MDA-MB-231; type: cell-based, human; settings: 24 h; compound 1 at its IC50 value, LA 0.1 µM
Procedure: as §5

β-actin in MCF-10A cells = experiment: Actin immunofluorescence, MCF-10A; type: cell-based, human; settings: 24 h; compounds at their IC50 value, LA 0.1 μM
Procedure: as §5
E: Figure S1. Actin immunofluorescence studies in MCF-10A cells […]
Figure S1. Actin immunofluorescence studies. M CF-10A cells were treat ed with compounds 1 and […]
treatment, the cells were methanol fixed, incubated with primary and secondary antibodies, stained with DAPI and observed and imaged under the inverted fluorescence microscope at 20x […]
A: nuclear stain with DAPI (λex/λem = 350/460 nm); Panels B: β-actin ([…]); Panels C: show a merge. R epresentative fields are shown.

Hek-293 cells [6] = experiment: MTT assay, normal Hek-293; type: cell-based, human; settings: up to the concentration of 200 μM
[7] = MTT, 72 h, normal cells, mean ± SD

Row | Structure (SMILES) | IC50 (Hek-293 cells [1]; [7]) [µM] | IC50 (MCF-7 cells; MTT, 72 h, mean ± SD) [µM] | IC50 (MDA-MB-231 cells; MTT, 72 h, mean ± SD) [µM] | IC50 (MCF-10A cells; MTT, normal cells, mean ± SD) [µM] | IC50 (SkBr3 cells; MTT, 72 h, mean ± SD) [µM] | LogP [2] | also measured
1 | COC(Cn1ccn(C)[c]1=[Au+]=[c]1n(C)ccn1CC(OC)c1ccccc1)c1ccccc1.[Cl-] (centres unmarked) [Compound 3] | 39 ± 0.9 | 3.3 ± 1.4 | 2.2 ± 1.1 | 13.3 ± 1 | 10.9 ± 0.7 | 0.62 | 
2 | CC(=O)[O-].Cn1ccn(CC(O)c2ccccc2)[c]1=[Au+]=[c]1n(C)ccn1CC(O)c1ccccc1 (centres unmarked) [Compound 5] | > 200 | 21.9 ± 0.5 | 58.5 ± 1.2 | 27.8 ± 0.7 | 58.9 ± 1.2 | 0.12 | 
3 | C=C1[C@@H](C)[C@H]2[C@H](Cc3ccccc3)NC(=O)[C@]23OC(=O)/C=C/[C@H](O)CCC[C@@H](C)C/C=C/[C@H]3[C@@H]1O [cytochalasin B] |  |  |  |  |  |  | effect on actin polymerization (in words) [3]: impeded the actin polymerization; actin polymerization curve, final value [3]: ended almost at the same RFU value of the beginning; effect on already polymerized actin (in words) [4]: did not produce a significant decrease
4 | CC(=O)[O-].Cn1ccn(CC([O-])c2ccccc2)[c]1=[Au+]=[c]1n(C)ccn1CC([O-])c1ccccc1.[Na+].[Na+] (centres unmarked) [Compound 2] | > 200 | 30.6 ± 0.7 | 22.6 ± 1.1 | 39.6 ± 0.5 | 38.4 ± 0.4 | 0.047 | reduction of vimentin expression with respect to the control, MCF-7 (vimentin in MCF-7 cells): two times lower
5 | C/C1=C/C(=O)O[C@@H]2C[C@@H](CC[C@H](C)/C=C\C=C\CC1)O[C@@](O)([C@@H]1CSC(=O)N1)C2 [Latrunculin A, reference compound] |  |  |  |  |  |  | IC50 (Hek-293 cells [1]; Homo sapiens, HEK293, 72 h): 0.093 µM; IC50 (MCF-7 cells; Homo sapiens, MCF7, 72 h): 0.14 µM; actin polymerization curve, value 14 min after the reaction started [3]: about 12.000 RFU; effect on actin polymerization (in words) [3]: impeded the actin polymerization; actin polymerization curve, final value [3]: about 10.000 RFU; actin organization in MCF-7 cells (β-actin in MCF-7 cells): complete disorganization of the actin system; effect on already polymerized actin (in words) [4]: triggered the actin depolymerization; actin depolymerization curve, end value ([4]; 5 µM added to actin polymerized for one hour, followed for another hour): 14.000 RFU; actin depolymerization curve, value after the net decrease at about seven minutes ([4]; 5 µM added to actin polymerized for one hour, initial value around 28.000 RFU): about 16.800 RFU; actin organization in MDA-MB-231 cells [5]: complete disorganization of the actin system; IC50 (MDA-MB-231 cells; Homo sapiens, MDA-MB-231, 72 h): 0.024 µM; actin organization in MCF-10A cells (β-actin in MCF-10A cells): aberrant actin arrangement; IC50 (MCF-10A cells; Homo sapiens, MCF-10A): 0.045 µM; IC50 (SkBr3 cells; Homo sapiens, SK-BR-3, 72 h): 0.7 ± 1.2 µM; cytotoxicity against the normal Hek-293 cells (in words) (Hek-293 cells [6]): drastically reduced
6 | CC(=O)[O-].COC(Cn1ccn(C)[c]1=[Au+]=[c]1n(C)ccn1CC(OC)c1ccccc1)c1ccccc1 (centres unmarked) [Compound 4, Bis [(N-methyl, N’(2-methoxy-2-phenyl-ethyl)imidazole-2-ylidine]gold(I)] acetate] | 7.6 ± 1 | 9.4 ± 0.6 | 3 ± 0.7 | 5.2 ± 0.9 | 2.6 ± 0.7 |  | 
7 | N.N.[Cl][Pt][Cl] [Cisplatin, reference compound] | 16.3 ± 0.9 | 35.8 ± 0.7 | 28.7 ± 0.4 | 81.3 ± 0.6 | 7.4 ± 0.9 |  | 
